Laboratory results as given in ChEMBL document CHEMBL3638030, “IC50 data for the L-type calcium channel extracted from a set of literature articles”.

Key:
[1] = biological target: T1, Voltage-dependent L-type calcium channel subunit alpha-1C (Cavia porcellus, UniProt O35505); experiment: (§1) Inhibition of Cav1.2 calcium current measured using whole cell patch clamp in guinea pig ventricular myocytes; assay type: functional, cell-based, Heart, Ventricular myocyte; design: ca sol conc 1.8 mM, temp 24-26 C
[2] = biological target: T1, Voltage-dependent L-type calcium channel subunit alpha-1C; experiment: as §1; assay type: functional, cell-based, Heart, Ventricular myocyte; design: ca sol conc 1.8 mM
[3] = Inhibition of Cav1.2 calcium current measured using whole cell patch clamp in mouse/rat NG108-15; assay type: functional, cell-based; design: ca sol conc 1.8 mM, temp 20-25 C
[4] = biological target: T2, Voltage-dependent L-type calcium channel subunit alpha-1C (Rattus norvegicus, UniProt P22002); experiment: Inhibition of Cav1.2 calcium current measured using whole cell patch clamp in rat atrial myocytes; assay type: functional, cell-based, Heart, Cardiac Muscle Cell; design: ca sol conc 2 mM, temp 22-24 C
[5] = biological target: T2, Voltage-dependent L-type calcium channel subunit alpha-1C; experiment: Inhibition of Cav1.2 calcium current measured using whole cell patch clamp in rat myocyte; assay type: functional, Heart, Cardiac Muscle Cell; design: ca sol conc 1.8 mM
[6] = biological target: T2, Voltage-dependent L-type calcium channel subunit alpha-1C; experiment: (§2) Inhibition of Cav1.2 calcium current measured using FLIPR in rat aortic A7r5 cells; assay type: functional, cell-based
[7] = biological target: T1, Voltage-dependent L-type calcium channel subunit alpha-1C; experiment: as §1; assay type: functional, cell-based, Heart, Ventricular myocyte; design: ca sol conc 1.8 mM, temp 19 C
[8] = biological target: T2, Voltage-dependent L-type calcium channel subunit alpha-1C; experiment: Inhibition of Cav1.2 calcium current measured using whole cell patch clamp in rat Artery myocytes; assay type: functional, cell-based, Tail; design: ca sol conc 5 mM, temp 20-22 C
[9] = biological target: T2, Voltage-dependent L-type calcium channel subunit alpha-1C; experiment: (§3) Inhibition of Cav1.2 calcium current measured using whole cell patch clamp in rat ventricular myocytess; assay type: functional, cell-based, Heart, Ventricular myocyte; design: ca sol conc 1.8 mM, temp 20-22 C
[10] = biological target: L-type calcium channel alpha 1C/beta 2A (Oryctolagus cuniculus, UniProt P15381+P54288); experiment: Inhibition of Cav1.2 calcium current measured using whole cell patch clamp in human HEK293 cells transfected with rabbit L-type calcium channel subunits; assay type: functional, cell-based; design: ca sol conc 5 mM, temp room
[11] = biological target: T1, Voltage-dependent L-type calcium channel subunit alpha-1C; experiment: as §1; assay type: functional, cell-based, Heart, Ventricular myocyte; design: ca sol conc 1.8 mM, temp room
[12] = biological target: T3, Voltage-dependent L-type calcium channel subunit alpha-1C (Mus musculus, UniProt Q01815); experiment: (§4) Inhibition of Cav1.2 calcium current measured using whole cell patch clamp in mouse ventricular myocytes; assay type: functional, cell-based, Heart, Ventricular myocyte; design: ca sol conc 2 mM, temp room
[13] = biological target: T2, Voltage-dependent L-type calcium channel subunit alpha-1C; experiment: (§5) Inhibition of Cav1.2 calcium current measured using whole cell patch clamp in rat ventricular myocytes; assay type: functional, cell-based, Heart, Ventricular myocyte; design: ca sol conc 1.8 mM, temp 25 C
[14] = biological target: T3, Voltage-dependent L-type calcium channel subunit alpha-1C; experiment: as §4; assay type: functional, cell-based, Heart, Ventricular myocyte; design: ca sol conc 2 mM, temp room; remark: listed apart in the source
[15] = biological target: T1, Voltage-dependent L-type calcium channel subunit alpha-1C; experiment: as §1; assay type: functional, cell-based, Heart, Ventricular myocyte; design: ca sol conc 0.5 mM
[16] = biological target: T1, Voltage-dependent L-type calcium channel subunit alpha-1C; experiment: as §1; assay type: functional, cell-based, Heart, Ventricular myocyte; design: ca sol conc 1.8 mM, temp 25-27 C
[17] = biological target: Voltage-dependent L-type calcium channel subunit alpha-1C (Homo sapiens, UniProt Q13936); experiment: Inhibition of Cav1.2 calcium current measured using Voltage-clamp 2-electrode in Xenopous Oocyte transfected with human L-type calcium channel; assay type: functional, cell-based, Xenopus; design: ca sol conc 4 - Ba(OH)2 mM, temp 20-22 C
[18] = biological target: T1, Voltage-dependent L-type calcium channel subunit alpha-1C; experiment: as §1; assay type: functional, cell-based, Heart, Ventricular myocyte; design: ca sol conc 1.8 mM; remark: listed apart in the source
[19] = biological target: T2, Voltage-dependent L-type calcium channel subunit alpha-1C; experiment: as §2; assay type: functional, cell-based; remark: listed apart in the source
[20] = biological target: T2, Voltage-dependent L-type calcium channel subunit alpha-1C; experiment: as §5; assay type: functional, cell-based, Heart, Ventricular myocyte; design: ca sol conc 2 mM, temp room
[21] = biological target: T3, Voltage-dependent L-type calcium channel subunit alpha-1C; experiment: as §4; assay type: functional, cell-based, Heart, Ventricular myocyte; design: ca sol conc 1.8 mM, temp room
[22] = biological target: T4, Voltage-dependent L-type calcium channel subunit alpha-1C (Oryctolagus cuniculus, UniProt P15381); experiment: (§6) Inhibition of Cav1.2 calcium current measured using whole cell patch clamp in rabbit ventricular myocytes; assay type: functional, cell-based, Heart, Ventricular myocyte; design: ca sol conc 1.8 mM, temp 23 C
[23] = biological target: T4, Voltage-dependent L-type calcium channel subunit alpha-1C; experiment: as §6; assay type: functional, cell-based, Heart, Ventricular myocyte; design: ca sol conc 1.8 mM, temp 23 C; remark: listed apart in the source
[24] = biological target: T2, Voltage-dependent L-type calcium channel subunit alpha-1C; experiment: as §5; assay type: functional, cell-based, Heart, Ventricular myocyte; design: ca sol conc 1.8 mM, temp 25-27 C
[25] = biological target: T2, Voltage-dependent L-type calcium channel subunit alpha-1C; experiment: as §3; assay type: functional, cell-based, Heart, Ventricular myocyte; design: ca sol conc 2 mM, temp 22-24 C
[26] = biological target: T1, Voltage-dependent L-type calcium channel subunit alpha-1C; experiment: as §1; assay type: functional, cell-based, Heart, Ventricular myocyte; design: ca sol conc 1.8 mM, temp 35-36 C
[27] = biological target: T1, Voltage-dependent L-type calcium channel subunit alpha-1C; experiment: as §1; assay type: functional, cell-based, Heart, Ventricular myocyte; design: ca sol conc 5 mM, temp 20-22 C
[28] = biological target: T1, Voltage-dependent L-type calcium channel subunit alpha-1C; experiment: as §1; assay type: functional, cell-based, Heart, Ventricular myocyte; design: ca sol conc 5 mM, temp 20-22 C; remark: listed apart in the source
[29] = biological target: T1, Voltage-dependent L-type calcium channel subunit alpha-1C; experiment: as §1; assay type: functional, cell-based, Heart, Ventricular myocyte; design: ca sol conc 1.8 mM, temp 37 C
[30] = biological target: T3, Voltage-dependent L-type calcium channel subunit alpha-1C; experiment: as §4; assay type: functional, cell-based, Heart; design: ca sol conc 2.5 mM, temp 22-24 C; conditions: ventricular myocyte

T3 sequence (Q01815 whole entry): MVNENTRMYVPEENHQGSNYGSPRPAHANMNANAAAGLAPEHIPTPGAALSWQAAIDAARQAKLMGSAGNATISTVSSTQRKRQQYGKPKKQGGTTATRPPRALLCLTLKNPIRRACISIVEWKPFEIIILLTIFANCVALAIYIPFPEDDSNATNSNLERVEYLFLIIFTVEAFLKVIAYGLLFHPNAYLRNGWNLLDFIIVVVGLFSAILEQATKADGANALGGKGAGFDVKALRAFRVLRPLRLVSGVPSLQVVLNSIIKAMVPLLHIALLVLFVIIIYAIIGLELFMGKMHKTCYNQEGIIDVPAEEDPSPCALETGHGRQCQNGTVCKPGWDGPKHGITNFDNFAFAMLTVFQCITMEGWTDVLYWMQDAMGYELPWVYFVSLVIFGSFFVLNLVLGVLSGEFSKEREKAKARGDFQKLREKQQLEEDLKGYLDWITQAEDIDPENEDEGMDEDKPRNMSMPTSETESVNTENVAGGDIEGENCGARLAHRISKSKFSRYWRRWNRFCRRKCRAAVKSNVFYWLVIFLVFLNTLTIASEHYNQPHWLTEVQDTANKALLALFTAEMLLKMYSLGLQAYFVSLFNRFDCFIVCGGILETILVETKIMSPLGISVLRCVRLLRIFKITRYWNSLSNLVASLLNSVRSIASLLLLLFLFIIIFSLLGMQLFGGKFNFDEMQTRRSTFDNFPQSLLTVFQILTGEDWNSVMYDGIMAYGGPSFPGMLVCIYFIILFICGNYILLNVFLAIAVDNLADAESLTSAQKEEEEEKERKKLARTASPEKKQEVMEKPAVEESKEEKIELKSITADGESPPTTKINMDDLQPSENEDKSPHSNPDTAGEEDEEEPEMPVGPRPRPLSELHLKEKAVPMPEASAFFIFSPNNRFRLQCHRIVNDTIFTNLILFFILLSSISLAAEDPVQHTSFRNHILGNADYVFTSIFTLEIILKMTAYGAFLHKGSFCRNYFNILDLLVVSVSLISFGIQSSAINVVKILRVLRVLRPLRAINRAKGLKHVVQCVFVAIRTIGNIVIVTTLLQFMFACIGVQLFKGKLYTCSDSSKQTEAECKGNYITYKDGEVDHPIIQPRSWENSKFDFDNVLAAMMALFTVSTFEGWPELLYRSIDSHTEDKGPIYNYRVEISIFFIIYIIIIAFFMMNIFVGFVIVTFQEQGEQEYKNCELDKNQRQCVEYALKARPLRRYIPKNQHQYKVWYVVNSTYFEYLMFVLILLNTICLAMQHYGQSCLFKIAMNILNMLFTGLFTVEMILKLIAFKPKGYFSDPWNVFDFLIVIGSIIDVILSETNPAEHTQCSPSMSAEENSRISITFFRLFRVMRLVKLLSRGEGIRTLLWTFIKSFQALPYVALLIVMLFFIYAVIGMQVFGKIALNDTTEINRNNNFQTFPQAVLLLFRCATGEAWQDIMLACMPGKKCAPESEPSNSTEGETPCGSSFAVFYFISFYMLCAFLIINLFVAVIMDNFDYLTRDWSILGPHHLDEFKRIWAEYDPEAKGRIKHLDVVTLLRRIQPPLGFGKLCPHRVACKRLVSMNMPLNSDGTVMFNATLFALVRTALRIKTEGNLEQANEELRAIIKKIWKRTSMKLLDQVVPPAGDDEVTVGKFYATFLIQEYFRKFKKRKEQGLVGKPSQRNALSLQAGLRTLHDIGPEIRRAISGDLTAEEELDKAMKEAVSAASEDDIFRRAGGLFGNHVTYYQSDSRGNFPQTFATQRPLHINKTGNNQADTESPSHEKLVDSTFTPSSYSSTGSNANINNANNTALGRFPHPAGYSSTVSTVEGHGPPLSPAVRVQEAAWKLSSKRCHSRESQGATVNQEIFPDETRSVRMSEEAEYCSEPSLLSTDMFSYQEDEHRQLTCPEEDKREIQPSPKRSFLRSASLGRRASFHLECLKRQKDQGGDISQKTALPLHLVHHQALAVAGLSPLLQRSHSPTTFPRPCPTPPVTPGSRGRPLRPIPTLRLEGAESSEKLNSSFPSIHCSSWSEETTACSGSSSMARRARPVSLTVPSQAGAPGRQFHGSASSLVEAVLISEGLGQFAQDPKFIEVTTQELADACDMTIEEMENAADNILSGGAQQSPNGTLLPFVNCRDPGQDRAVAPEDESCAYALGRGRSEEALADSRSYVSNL
T1 sequence (O35505 whole entry): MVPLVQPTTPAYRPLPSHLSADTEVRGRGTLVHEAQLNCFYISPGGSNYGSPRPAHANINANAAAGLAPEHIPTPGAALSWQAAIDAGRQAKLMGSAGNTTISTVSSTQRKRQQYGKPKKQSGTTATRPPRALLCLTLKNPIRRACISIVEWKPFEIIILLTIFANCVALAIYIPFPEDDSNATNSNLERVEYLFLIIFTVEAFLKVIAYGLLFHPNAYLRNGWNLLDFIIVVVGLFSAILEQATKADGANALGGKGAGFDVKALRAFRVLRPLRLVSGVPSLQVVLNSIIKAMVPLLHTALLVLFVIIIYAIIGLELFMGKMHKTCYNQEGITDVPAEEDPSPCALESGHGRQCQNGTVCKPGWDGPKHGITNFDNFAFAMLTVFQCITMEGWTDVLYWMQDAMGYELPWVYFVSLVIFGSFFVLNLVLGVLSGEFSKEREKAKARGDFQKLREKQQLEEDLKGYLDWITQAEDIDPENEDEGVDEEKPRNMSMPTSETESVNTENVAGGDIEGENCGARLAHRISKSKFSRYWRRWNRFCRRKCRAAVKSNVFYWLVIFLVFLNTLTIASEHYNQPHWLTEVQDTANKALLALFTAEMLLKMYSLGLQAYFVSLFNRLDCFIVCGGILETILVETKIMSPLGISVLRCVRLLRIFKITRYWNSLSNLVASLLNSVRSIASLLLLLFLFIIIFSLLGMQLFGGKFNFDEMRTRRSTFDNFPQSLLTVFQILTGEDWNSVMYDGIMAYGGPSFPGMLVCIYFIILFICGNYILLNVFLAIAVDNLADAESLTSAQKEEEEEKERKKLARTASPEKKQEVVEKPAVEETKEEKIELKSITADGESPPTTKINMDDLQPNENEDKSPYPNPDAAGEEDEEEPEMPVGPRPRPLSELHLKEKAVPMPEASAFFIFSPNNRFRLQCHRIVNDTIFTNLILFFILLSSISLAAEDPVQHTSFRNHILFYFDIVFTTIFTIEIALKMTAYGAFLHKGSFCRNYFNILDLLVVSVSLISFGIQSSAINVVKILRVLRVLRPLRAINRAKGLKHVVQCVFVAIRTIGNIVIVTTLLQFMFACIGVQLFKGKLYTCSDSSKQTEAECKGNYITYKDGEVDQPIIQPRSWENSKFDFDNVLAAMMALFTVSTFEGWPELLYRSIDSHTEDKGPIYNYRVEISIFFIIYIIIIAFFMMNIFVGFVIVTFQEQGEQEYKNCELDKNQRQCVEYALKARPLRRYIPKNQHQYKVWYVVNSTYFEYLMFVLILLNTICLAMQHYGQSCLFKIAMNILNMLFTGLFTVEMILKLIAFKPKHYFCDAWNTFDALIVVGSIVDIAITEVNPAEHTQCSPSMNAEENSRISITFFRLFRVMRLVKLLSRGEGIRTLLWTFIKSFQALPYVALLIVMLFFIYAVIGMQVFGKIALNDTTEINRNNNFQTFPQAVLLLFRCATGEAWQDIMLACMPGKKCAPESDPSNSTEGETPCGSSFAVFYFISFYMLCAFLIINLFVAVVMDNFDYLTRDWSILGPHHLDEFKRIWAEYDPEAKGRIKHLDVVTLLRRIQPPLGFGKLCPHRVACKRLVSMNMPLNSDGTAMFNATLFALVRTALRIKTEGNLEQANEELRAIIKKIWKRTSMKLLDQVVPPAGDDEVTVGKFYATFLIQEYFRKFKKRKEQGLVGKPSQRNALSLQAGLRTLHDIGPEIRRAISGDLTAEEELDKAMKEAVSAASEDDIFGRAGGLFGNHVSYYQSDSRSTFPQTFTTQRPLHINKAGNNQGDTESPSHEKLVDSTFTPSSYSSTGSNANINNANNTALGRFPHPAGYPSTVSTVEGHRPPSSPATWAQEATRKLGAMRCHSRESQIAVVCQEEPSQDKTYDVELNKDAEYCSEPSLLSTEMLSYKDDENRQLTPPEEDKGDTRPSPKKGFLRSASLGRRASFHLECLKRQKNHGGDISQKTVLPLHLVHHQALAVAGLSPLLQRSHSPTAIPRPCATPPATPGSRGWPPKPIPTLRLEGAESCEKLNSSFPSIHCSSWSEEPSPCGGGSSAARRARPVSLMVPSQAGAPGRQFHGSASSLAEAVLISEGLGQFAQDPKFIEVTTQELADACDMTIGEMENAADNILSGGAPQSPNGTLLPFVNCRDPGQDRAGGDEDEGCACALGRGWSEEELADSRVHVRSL

SMILES: CC(=O)N(CCOc1cccc2ccccc12)CCc1ccc(NS(C)(=O)=O)cc1
- IC50 [1]: 0.909 µM

SMILES: COc1ccc2c(c1)CN(C(=O)CCN1CCC(Cc3ccccc3)CC1)CCS2
- IC50 [2]: 3 µM

SMILES: Cc1cc(O)c(C(C)C)cc1CN1CCCCC1
- IC50 [3]: 3.6 µM

SMILES: O=C1CSC(c2ccccc2Cl)c2cc(Cl)ccc2N1 (stereo not given)
- IC50 [4]: 0.27 µM

SMILES: CC(/N=C(\NC#N)Nc1ccc(OC(F)F)cc1)C(C)(C)C (stereo not given)
- IC50 [5]: 24.1 µM

SMILES: CCC(CC)(CNC(=O)C1CCN(CCc2ccccc2)CC1)c1ccc(F)cc1
- IC50 [6]: 4.4 µM

SMILES: COc1ccc(CCNC(C)COc2c(C)cccc2C)cc1OC (stereo not given)
- IC50 [7]: 28.5 µM

SMILES: O=c1cc(-c2ccccc2O)oc2cc(O)cc(O)c12
- IC50 [8]: 45.1 µM

SMILES: O=C1C=CC[C@H](C[C@@H](O)CCc2ccc(O)cc2)O1
- IC50 [9]: 3.2 µM

SMILES: COc1ccc2c(c1)c(C1=C(c3c[nH]c4ccccc34)C(=O)NC1=O)cn2CCCN(C)C
- IC50 [10]: 20 µM

SMILES: N#Cc1cc2c(OCC(O)CN3CCN(C(c4ccccc4)c4ccccc4)CC3)cccc2[nH]1 (stereo not given)
- IC50 [11]: 1.1 µM

SMILES: COc1ccc(CCN(C)CCCOc2ccc(S(=O)(=O)c3c(C(C)C)c4ccccc4n3C)cc2)cc1OC
- IC50 [12]: 0.033 µM
- IC50 [13]: 0.024 µM
- IC50 [14]: 0.0041 µM

SMILES: Cc1cc2c(OCC(O)CN3CCN(C(c4ccccc4)c4ccccc4)CC3)cccc2[nH]1 (stereo not given)
- IC50 [11]: 3.6 µM

SMILES: COc1ccc2c(c1OC)C[N+]1(Cc3ccc(Cl)cc3)CCc3cc4c(cc3C1C2)OCO4 (stereo not given)
- IC50 [15]: 11.5 µM

SMILES: COc1ccc2c(=O)c3c(n(Cc4ccccc4)c2c1)OCC3=O
- IC50 [16]: 4 µM

SMILES: CCN(CC)CC(=O)N1C[C@@H](c2ccc(Cl)cc2)Sc2ccccc21
- IC50 [17]: 52 µM

SMILES: COc1cccc(/C=C/CN2CCC(=C3c4ccccc4C=Cc4ccccc43)CC2)c1[N+](=O)[O-]
- IC50 [18]: 0.32 µM
- IC50 [2]: 4.91 µM

SMILES: COc1cc(C[C@H](C)[C@@H](C)C(=O)c2ccc(O)c(OC)c2)ccc1O
- IC50 [16]: 7.5 µM

SMILES: COc1cccc(CCN2CCC(CC(=O)N[C@@H](c3ccc(F)cc3)C(C)C)CC2)c1
- IC50 [6]: 2.2 µM
- IC50 [19]: 7 µM

SMILES: CC(C)[C@@H](NC(=O)CC1CCN(CCc2ccccc2)CC1)c1ccc(F)cc1
- IC50 [6]: 10 µM

SMILES: CC(C)[C@@H](NC(=O)NC1CCN(CCc2ccccc2)CC1)c1ccc(F)cc1
- IC50 [6]: 5 µM

SMILES: CC(C)C(CNC(=O)C1CCN(CCc2ccccc2)CC1)c1ccc(F)cc1 (stereo not given)
- IC50 [6]: 3.9 µM

SMILES: COc1ccccc1CCN1CCC(CC(=O)N[C@@H](c2ccc(F)cc2)C(C)C)CC1
- IC50 [6]: 6.8 µM

SMILES: COCCOc1c(F)cccc1CCN1CCC(CC(=O)N[C@@H](c2ccc(F)cc2)C(C)C)CC1
- IC50 [6]: 2.1 µM

SMILES: COCCOc1cc(F)ccc1CCN1CCC(CC(=O)N[C@@H](c2ccc(F)cc2)C(C)C)CC1
- IC50 [6]: 1.9 µM

SMILES: COCCOc1ccc(F)cc1CCN1CCC(CC(=O)N[C@@H](c2ccc(F)cc2)C(C)C)CC1
- IC50 [6]: 3.1 µM

SMILES: COCCOc1cccc(F)c1CCN1CCC(CC(=O)N[C@@H](c2ccc(F)cc2)C(C)C)CC1
- IC50 [6]: 3.1 µM

SMILES: COCCOc1ccccc1CCN1CCC(CC(=O)N[C@@H](c2ccc(F)cc2)C(C)C)CC1
- IC50 [20]: 38 µM

SMILES: CCN1CCC(CC(NC(=O)c2ccc([N+](=O)[O-])cc2)c2ccc(F)cc2)CC1 (stereo not given)
- IC50 [21]: 100 µM

SMILES: CC(C)(C)OC(=O)N1CC2CC(CN(C[C@H](O)COc3ccc(C#N)cc3)C2)C1
- IC50 [22]: 1.3 µM
- IC50 [23]: 6 µM

SMILES: O=C1COc2c1c(=O)c1ccc(Br)cc1n2Cc1ccccc1F
- IC50 [24]: 4.9 µM

SMILES: CCCCC/C=C\C/C=C\C/C=C/C/C=C\CCCC(=O)NCCO
- IC50 [25]: 0.1 µM

SMILES: CCNCC#CC(C)(C)OC(=O)C(O)(c1ccccc1)C1CCCCC1 (stereo not given)
- IC50 [26]: 27 µM

SMILES: COc1ccc2c(c1OC)[C@@H]1Cc3cc4c(cc3[C@H](C2)N1C)OCO4
- IC50 [24]: 6.6 µM

SMILES: CC1=C(C(=O)OC(C)C)[C@@H](c2cccc3nonc23)C([N+](=O)[O-])=C(C)N1
- IC50 [27]: 0.001 µM
- IC50 [28]: 0.2 µM

SMILES: CC1=C(C(=O)OC(C)C)[C@H](c2cccc3nonc23)C([N+](=O)[O-])=C(C)N1 (mixture of isomers)
- IC50 [28]: 0.08 µM

SMILES: O=C1CC(c2ccc(O)cc2)Oc2cc(O)cc(O)c21 (racemic)
- IC50 [8]: 100 µM

SMILES: COC(=O)C1=CCCN(C)C1 [ARECOLINE]
- IC50 [29]: 33.7 µM

SMILES: CC(C)c1c(C(=O)Nc2ccccc2)c(-c2ccccc2)c(-c2ccc(F)cc2)n1CC[C@@H](O)C[C@@H](O)CC(=O)O [ATORVASTATIN]
- IC50 [30]: inactive at 10nM. Original reference for datapoint is pubmed_id: 17466325
